Experimental data from patent EP0880966A1, “THIAMINE DISULFIDES AND MEDICINES CONTAINING THE SAME AS THE ACTIVE INGREDIENT” (NISSUI PHARMACEUTICAL CO., LTD., priority 1996, dated 1998).
Like-named read-outs stand apart in the source and are kept apart here.

Tested on: CEM/LAV-1
Conditions: for TCID50/ml / Inhibition rate (%): CEM/LAV-1 cells cultured 96 hours; for TCID50/ml: titer by 72-hour culture on MT-4 cells, control 4 x 10^5; for Inhibition rate (%): versus control without agent
Description: A test agent was added at predetermined concentrations to cells (2 x 10^5 cells/ml, 10 ml) persistently infected with HIV in a logarithmic growth phase to culture the cells for 96 hours. The number of viable cells and the number of killed cells were counted every 24 hours by a trypan blue dye exclusion test to determine the cytotoxic effect of the test agent on the cells. A viral infectious titer (TCID50/ml) in each of the culture solutions incubated for 96 hours was determined by 72-hour culture using, as an index, the giant cell formation of MT-4 cells. In a control group, the cells were cultured in a medium free of any agent. An anti-HIV activity (inhibition %) was determined in accordance with the following equation: Anti-HIV activity (inhibition %) =(TC)/(TC)x 100 [formula]

CCCCCCCCCCCCCC(=O)OCC/C(SS/C(CCOC(=O)CCCCCCCCCCCCC)=C(/C)N(C=O)Cc1cnc(C)nc1N)=C(\C)N(C=O)Cc1cnc(C)nc1N [compound (1), thiamine disulfide dimyristate]
inhibitory effect (CEM/LAV-1 cells, concentration of from 50 to 125 µm): ~100%
TCID50/ml (Invention compound 50 µM): 8 x 10^2 TCID50/ml
Inhibition rate (%) (Invention compound 50 µM): 99.5%
TCID50/ml (Invention compound 125 µM): 8 x 10^2 TCID50/ml
Inhibition rate (%) (Invention compound 125 µM): 99.5%
